The record followed here is US20200262813A1, “1,5,7-TRISUBSTITUTED ISOQUINOLINE DERIVATIVES, PREPARATION THEREOF, AND USE THEREOF IN MEDICINES” (SHANGHAI HAIYAN PHARMACEUTICAL TECHNOLOGY CO., LTD., priority 2016, published 2020).

Where two headings read alike, the source gives them in different places.

Assay [1] relates to Pfeiffer cells. Description: Cell proliferation test (cell counting kit-8, 6 days). Format: cell-based. Particulars: 6 days' growth. The protocol:
Cells were harvested by centrifuge and densities were determined using a CounterStar cell counter. Appropriate number of cells were plated in a 96-well culture plate and incubated overnight. Compounds to be tested were 1:3 diluted for 8 gradient points and added into corresponding wells. After 6 days' growth, cell counting kit-8 (Dojindo) was used to detect cell viability and absorbance values were read on Tecan infinite pro.
In general terms: Formazan colour is commonly taken as a measure of viable cells.

The target in assay [2] is Recombinant PRC2 (EZH2-Y641F) (Homo sapiens, UniProt Q15910, Y641F). As to the kind of experiment: In vitro methyltransferase activity test (LANCE Ultra).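 Further: compounds tested as an 8-point threefold dilution series, fluorescence read after 1 h detection step at room temperature, IC50 derived from a four-parameter curve fit.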 Particulars: LANCE Ultra detection, 3 hours reaction. A general note: Time-resolved FRET reads energy transfer from a long-lived donor to a nearby acceptor.
Protocol: In Vitro Methyltransferase Activity Test
Recombinant PRC2 (EZH2-Y641F) was purchased from Active motif, S-adenosyl-methionine (SAM) and Poly-L-lysine (PLL) were purchased from Sigma-Aldrich, H3(1-50)K27mel polypeptide was purchased from Cisbio. LANCEUltra system (Perkinelmer) was used for detection. In the enzyme activity test, a compound to be tested was 1:3 diluted for 8 gradient points, added into a reaction plate, and then added 100 ng recombinant enzyme. And then a buffer [20 mM Tris pH8.5, 2 mM MgCl2, 0.01% Tween-20, 1 mM TCEP] containing 2.5 M SAM/250 nM H3(1-50)K27mel premixture was added to conduct an enzyme reaction at room tempreture. After reacted for 3 hours, a dection solution containing premixed PLL, detection antibody and Ulight was added, reacted for 1 h at RT, then fluorescence was read on Tecan infinite pro. IC50s were calculated by four-factor model fitting in a XLfit software.
[3] abbreviates: EZH2 Y641F IC50, Recombinant PRC2 (EZH2-Y641F).

Recombinant PRC2 (EZH2-Y641F), sequence (Q15910 whole entry Y641F): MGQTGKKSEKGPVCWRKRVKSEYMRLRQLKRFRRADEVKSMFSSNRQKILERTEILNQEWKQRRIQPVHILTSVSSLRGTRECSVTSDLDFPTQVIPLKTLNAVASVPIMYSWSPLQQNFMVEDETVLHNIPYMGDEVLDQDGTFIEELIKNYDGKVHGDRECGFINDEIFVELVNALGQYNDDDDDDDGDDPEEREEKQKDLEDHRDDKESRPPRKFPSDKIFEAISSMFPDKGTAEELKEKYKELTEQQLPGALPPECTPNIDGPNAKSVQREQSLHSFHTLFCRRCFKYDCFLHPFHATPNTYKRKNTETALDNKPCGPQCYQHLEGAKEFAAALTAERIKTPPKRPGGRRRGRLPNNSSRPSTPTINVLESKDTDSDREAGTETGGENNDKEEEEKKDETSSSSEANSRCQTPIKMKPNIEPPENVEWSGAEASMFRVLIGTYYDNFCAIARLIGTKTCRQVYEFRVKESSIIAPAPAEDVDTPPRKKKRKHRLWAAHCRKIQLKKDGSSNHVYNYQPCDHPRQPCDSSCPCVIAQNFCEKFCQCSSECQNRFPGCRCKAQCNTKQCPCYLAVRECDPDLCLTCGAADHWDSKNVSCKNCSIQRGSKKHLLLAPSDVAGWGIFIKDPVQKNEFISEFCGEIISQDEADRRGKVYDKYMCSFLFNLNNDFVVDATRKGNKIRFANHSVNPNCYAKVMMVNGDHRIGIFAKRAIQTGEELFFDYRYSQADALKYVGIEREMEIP
Recombinant PRC2 (EZH2-Y641F), sequence (O75530 whole entry partner): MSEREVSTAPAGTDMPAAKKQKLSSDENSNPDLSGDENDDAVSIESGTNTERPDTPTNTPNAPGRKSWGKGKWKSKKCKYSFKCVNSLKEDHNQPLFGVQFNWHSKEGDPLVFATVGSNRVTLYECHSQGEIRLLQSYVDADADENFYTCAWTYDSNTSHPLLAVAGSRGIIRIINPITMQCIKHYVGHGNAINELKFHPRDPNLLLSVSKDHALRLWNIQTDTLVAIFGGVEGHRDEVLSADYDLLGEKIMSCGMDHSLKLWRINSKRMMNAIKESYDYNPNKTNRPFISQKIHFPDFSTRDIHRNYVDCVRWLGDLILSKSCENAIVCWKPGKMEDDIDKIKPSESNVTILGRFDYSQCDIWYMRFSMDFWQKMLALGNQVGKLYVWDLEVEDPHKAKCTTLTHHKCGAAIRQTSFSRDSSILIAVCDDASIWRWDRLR
Recombinant PRC2 (EZH2-Y641F), sequence (Q15022 whole entry partner): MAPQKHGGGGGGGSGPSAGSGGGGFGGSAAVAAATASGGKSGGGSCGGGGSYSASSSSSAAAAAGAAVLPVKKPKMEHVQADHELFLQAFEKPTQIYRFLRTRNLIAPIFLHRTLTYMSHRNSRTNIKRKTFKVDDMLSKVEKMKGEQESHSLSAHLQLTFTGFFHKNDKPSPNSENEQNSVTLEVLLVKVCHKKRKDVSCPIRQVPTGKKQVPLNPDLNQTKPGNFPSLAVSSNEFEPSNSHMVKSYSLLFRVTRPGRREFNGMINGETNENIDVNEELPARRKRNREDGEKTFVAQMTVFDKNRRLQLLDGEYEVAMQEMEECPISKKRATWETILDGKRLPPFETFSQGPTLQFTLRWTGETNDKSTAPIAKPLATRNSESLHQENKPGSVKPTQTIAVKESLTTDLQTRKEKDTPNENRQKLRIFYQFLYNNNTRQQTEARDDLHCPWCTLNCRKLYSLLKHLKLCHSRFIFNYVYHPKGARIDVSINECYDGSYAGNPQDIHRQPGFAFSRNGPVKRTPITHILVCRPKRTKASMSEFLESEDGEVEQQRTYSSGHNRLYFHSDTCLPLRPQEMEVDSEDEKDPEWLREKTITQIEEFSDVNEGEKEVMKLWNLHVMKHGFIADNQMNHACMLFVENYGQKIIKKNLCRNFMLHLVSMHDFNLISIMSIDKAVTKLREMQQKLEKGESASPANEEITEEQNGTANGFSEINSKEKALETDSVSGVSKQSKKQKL
Recombinant PRC2 (EZH2-Y641F), sequence (Q09028 whole entry partner): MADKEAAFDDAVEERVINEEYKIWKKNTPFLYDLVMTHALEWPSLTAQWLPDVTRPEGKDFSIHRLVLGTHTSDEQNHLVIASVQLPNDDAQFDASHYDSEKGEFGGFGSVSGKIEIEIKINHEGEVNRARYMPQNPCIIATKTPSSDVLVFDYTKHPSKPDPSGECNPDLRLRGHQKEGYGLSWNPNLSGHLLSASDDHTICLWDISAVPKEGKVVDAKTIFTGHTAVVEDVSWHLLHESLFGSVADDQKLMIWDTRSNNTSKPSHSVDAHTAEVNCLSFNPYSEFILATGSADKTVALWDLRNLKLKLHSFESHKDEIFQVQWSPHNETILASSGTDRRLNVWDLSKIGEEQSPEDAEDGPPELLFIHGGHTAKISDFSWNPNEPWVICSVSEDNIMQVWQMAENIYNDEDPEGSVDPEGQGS
Recombinant PRC2 (EZH2-Y641F), sequence (Q6ZN18 whole entry partner): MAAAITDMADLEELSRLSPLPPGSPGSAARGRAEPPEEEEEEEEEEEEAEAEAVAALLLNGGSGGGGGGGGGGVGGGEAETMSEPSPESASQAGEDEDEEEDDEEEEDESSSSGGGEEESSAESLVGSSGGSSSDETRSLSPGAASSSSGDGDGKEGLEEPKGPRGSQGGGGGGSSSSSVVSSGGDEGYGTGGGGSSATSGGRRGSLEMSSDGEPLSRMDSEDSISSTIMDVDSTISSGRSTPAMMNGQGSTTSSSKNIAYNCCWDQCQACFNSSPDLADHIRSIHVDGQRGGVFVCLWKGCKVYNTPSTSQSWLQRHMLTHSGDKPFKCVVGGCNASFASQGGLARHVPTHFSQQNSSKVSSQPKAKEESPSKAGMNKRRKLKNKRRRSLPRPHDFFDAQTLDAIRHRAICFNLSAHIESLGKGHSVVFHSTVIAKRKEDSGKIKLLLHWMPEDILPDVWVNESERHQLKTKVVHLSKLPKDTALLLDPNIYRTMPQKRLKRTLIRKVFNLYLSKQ

Regarding `CCN(c1cc(-c2ccc(C3CCN(C)CC3)nc2)cc2c(NCc3c(C)cc(C)[nH]c3=O)nccc12)[C@H]1CC[C@H](N(C)C)CC1` [Compound Z-17, 3-((5-(((1R,4R)-4-(dimethylamino)cyclohexyl) (ethyl)amino)-7-(6-(1-methylpiperidine-4-yl)pyridine-3-yl)-isoquinolinylamino)methyl)-4,6-dimethylpyridine-2(1H)-one], the concentration for half-maximal inhibition (IC50) was found to be 768 nM in assay [1] (Homo sapiens, Pfeiffer, 144 h) and 13 nM in assay [2] (setting [3]).

For the compound `CCN(c1cc(-c2ccc(CN3CCN(C)CC3)nc2)cc2c(NCc3c(C)cc(C)[nH]c3=O)nccc12)C1CCOCC1` [Compound Z-35], the IC50 turned out to be 611 nM in assay [1] and 221 nM in assay [2] (setting [3]).

In the case of `CCN(c1cc(-c2ccc(CN3CCCCC3)cc2)cc2c(NCc3c(C)cc(C)[nH]c3=O)nccc12)C1CCC(N(C)C)CC1` (centres unmarked) [Compound Z-37], the IC50 is 991 nM in assay [1] (Homo sapiens, Pfeiffer, 144 h) and 28 nM in assay [2] (setting [3]).

For `CCN(c1cc(-c2ccc(N3CCOCC3)nc2)cc2c(NCc3c(C)cc(C)[nH]c3=O)nccc12)C1CCC(N(C)C)CC1` (centres unmarked) [Compound Z-39], the IC50 is 507 nM in assay [1] (Homo sapiens, Pfeiffer, 144 h) and 16 nM in assay [2] (setting [3]).

In the case of `CCN(c1cc(-c2ccc(CN(C)C)cc2)cc2c(NCc3c(C)cc(C)[nH]c3=O)nccc12)C1CCC(N(C)C)CC1` (centres unmarked) [Compound Z-45], the IC50 in assay [1] (Homo sapiens, Pfeiffer, 144 h) is 599 nM; in assay [2] (setting [3]), 38 nM.

As for `CCN(c1cc(-c2cnc(N3CCOCC3)nc2)cc2c(NCc3c(C)cc(C)[nH]c3=O)nccc12)[C@H]1CC[C@H](N(C)C)CC1` [Compound Z-46], the 50% inhibitory concentration (IC50) in assay [1] (Homo sapiens, Pfeiffer, 144 h) turned out to be 362 nM; in assay [2] (setting [3]), 14 nM.

`CCN(c1cc(-c2ccc(CN3CCN(C)CC3)cc2)cc2c(NCc3c(C)cc(C)[nH]c3=O)nccc12)[C@H]1CC[C@H](N(C)C)CC1` [Compound Z-54]: the half-inhibitory concentration (IC50) in assay [1] (Homo sapiens, Pfeiffer, 144 h) was determined as 614 nM; in assay [2] (setting [3]), 19 nM.

In assay [1], `CCN(c1cc(-c2ccc(CN3CCN(C)CC3)nc2)cc2c(NCc3c(C)cc(C)[nH]c3=O)nccc12)[C@H]1CC[C@@H](N(C)C)CC1` [Compound Z-58] displayed an IC50 of 359 nM.

On to `CCN(c1cc(-c2cccnc2)cc2c(NCc3c(C)cc(C)[nH]c3=O)nccc12)[C@H]1CC[C@@H](N(C)C)CC1` [Compound Z-64], for which the IC50 came out at 357 nM in assay [1] (Homo sapiens, Pfeiffer, 144 h) and 9 nM in assay [2] (setting [3]).

Take `CCN(c1cc(-c2cncnc2)cc2c(NCc3c(C)cc(C)[nH]c3=O)nccc12)C1CCC(N(C)C)CC1` (centres unmarked) [Compound Z-65]: the IC50 in assay [1] (Homo sapiens, Pfeiffer, 144 h) worked out at 972 nM; in assay [2] (setting [3]) it was 52 nM.

`CCN(c1cc(-c2ccc(N3CCOCC3)nc2)cc2c(NCc3c(C)cc(C)[nH]c3=O)nccc12)C1CCN(C(C)C)CC1` [Compound Z-66]: the IC50 was found to be 766 nM in assay [1] (Homo sapiens, Pfeiffer, 144 h) and 159 nM in assay [2] (setting [3]).

In turn, `CCN(c1cc(-c2ccc(N3CCOCC3)nc2)cc2c(NCc3c(C)cc(C)[nH]c3=O)nccc12)C1CCC(O)CC1` (centres unmarked) [Compound Z-70] came in with an IC50 in assay [1] of 516 nM.

In the case of `CCN(c1cc(-c2ccncc2)cc2c(NCc3c(C)cc(C)[nH]c3=O)nccc12)[C@H]1CC[C@H](N(C)C)CC1` [Compound Z-73], the IC50 turned out to be 593 nM in assay [1] (Homo sapiens, Pfeiffer, 144 h) and 150 nM in assay [2] (setting [3]).

Turning to `CCN(c1cc(-c2ccc(N3CCN(C)CC3)nc2)cc2c(NCc3c(C)cc(C)[nH]c3=O)nccc12)C1CCN(C2CC2)CC1` [Compound Z-74], the half-inhibitory concentration (IC50) was found to be 799 nM in assay [1] (Homo sapiens, Pfeiffer, 144 h) and 326 nM in assay [2] (setting [3]).

For the compound `CCN(c1cc(-c2cccnc2)cc2c(NCc3c(C)cc(C)[nH]c3=O)nccc12)C1CCC(O)CC1` (centres unmarked) [Compound Z-85], the IC50 stood at 521 nM in assay [1] (Homo sapiens, Pfeiffer, 144 h) and 269 nM in assay [2] (setting [3]).

On to `CCN(c1cc(-c2ccc(N3CCN(C)CC3)nc2)cc2c(NCc3c(C)cc(C)[nH]c3=O)nccc12)C1CCC(O)CC1` (centres unmarked) [Compound Z-86], for which the 50% inhibitory concentration (IC50) was determined as 483 nM in assay [1] (Homo sapiens, Pfeiffer, 144 h) and 128 nM in assay [2] (setting [3]).

For the compound `CCN(c1cc(-c2cnc(N3CCN(C)CC3)nc2)cc2c(NCc3c(C)cc(C)[nH]c3=O)nccc12)C1CCC(O)CC1` (centres unmarked) [Compound Z-89], the 50% inhibitory concentration (IC50) in assay [1] (Homo sapiens, Pfeiffer, 144 h) stood at 401 nM; in assay [2] (setting [3]) it was 43 nM.

Consider `CCN(c1cc(C2=CCN(C)CC2)cc2c(NCc3c(C)cc(C)[nH]c3=O)nccc12)C1CCC(O)CC1` (centres unmarked) [Compound Z-91], for which the IC50 stood at 291 nM in assay [1] (Homo sapiens, Pfeiffer, 144 h) and 75 nM in assay [2] (setting [3]).

`CCN(c1cc(-c2cnc(N3CCOCC3)nc2)cc2c(NCc3c(C)cc(C)[nH]c3=O)nccc12)C1CCN(C2CC2)CC1` [Compound Z-92]: in assay [1], inhibition was half-maximal at 688 nM (IC50).

Consider `CCN(c1cc(-c2ccc(C3CC3)nc2)cc2c(NCc3c(C)cc(C)[nH]c3=O)nccc12)C1CCC(N(C)C)CC1` (centres unmarked) [Compound Z-93], for which the half-inhibitory concentration (IC50) in assay [1] (Homo sapiens, Pfeiffer, 144 h) amounted to 279 nM; in assay [2] (setting [3]) it was 74 nM.

Take `CCN(c1cc(-c2ccc(N3CCN(C)CC3)nc2)cc2c(NCc3c(C)cc(C)[nH]c3=O)nccc12)C1CCC(F)(F)CC1` [Compound Z-94]: the IC50 amounted to 384 nM in assay [1] (Homo sapiens, Pfeiffer, 144 h) and 159 nM in assay [2] (setting [3]).

As to `CCN(CCN(C)C)c1cc(-c2ccc(N3CCN(C)CC3)nc2)cc2c(NCc3c(C)cc(C)[nH]c3=O)nccc12` [Compound Z-97], the IC50 in assay [1] (Homo sapiens, Pfeiffer, 144 h) is 326 nM; in assay [2] (setting [3]) it was 283 nM.

Consider `CCN(c1cc(-c2cnc(N3CCOCC3)nc2)cc2c(NCc3c(C)cc(C)[nH]c3=O)nccc12)C1CCC(O)CC1` (centres unmarked) [Compound Z-99], for which the IC50 came to 201 nM in assay [1] (Homo sapiens, Pfeiffer, 144 h) and 251 nM in assay [2] (setting [3]).

For `CCN(c1cc(-c2ccc(CN3CCN(C)CC3)nc2)cc2c(NCc3c(C)cc(C)[nH]c3=O)nccc12)C1CCC(F)(F)CC1` [Compound Z-105], the 50% inhibitory concentration (IC50) in assay [1] (Homo sapiens, Pfeiffer, 144 h) turned out to be 988 nM; in assay [2] (setting [3]), 197 nM.

Regarding `CCN(c1cc(-c2cnc(N3CCOCC3)nc2)cc2c(NCc3c(C)cc(C)[nH]c3=O)nccc12)[C@H]1CC[C@@H](O)CC1` [Compound Z-108], the 50% inhibitory concentration (IC50) in assay [1] was 612 nM; in assay [2] (read-out: EZH2 Y641F IC50, Recombinant PRC2 (EZH2-Y641F)), 283 nM.

As to `Cc1cc(C)c(CNc2nccc3c(N(C)C4CCC(N(C)C)CC4)cc(-c4ccc(N5CCN(C)CC5)nc4)cc23)c(=O)[nH]1` (centres unmarked) [Compound Z-111], the half-inhibitory concentration (IC50) worked out at 478 nM in assay [1] (Homo sapiens, Pfeiffer, 144 h) and 37 nM in assay [2] (setting [3]).

Consider `CCN(c1cc(-c2ccc(CN3CCN(C(C)C)CC3)nc2)cc2c(NCc3c(C)cc(C)[nH]c3=O)nccc12)C1CCOCC1` [Compound Z-112], for which the IC50 was 595 nM in assay [1] (Homo sapiens, Pfeiffer, 144 h) and 96 nM in assay [2] (setting [3]).

Regarding `CCN(c1cc(-c2ccc(CN3CCOCC3)nc2)cc2c(NCc3c(C)cc(C)[nH]c3=O)nccc12)C1CCOCC1` [Compound Z-113], the half-maximal inhibitory concentration (IC50) was found to be 713 nM in assay [1] (Homo sapiens, Pfeiffer, 144 h) and 153 nM in assay [2] (setting [3]).

As to `CCN(c1cc(-c2ccc(CN3CCN(C)C(=O)C3)nc2)cc2c(NCc3c(C)cc(C)[nH]c3=O)nccc12)C1CCOCC1` [Compound Z-114], the concentration for half-maximal inhibition (IC50) is 788 nM in assay [1] (Homo sapiens, Pfeiffer, 144 h) and 84 nM in assay [2] (setting [3]).

As to `CCN(c1cc(-c2cnc(CN3CCN(C)CC3)nc2)cc2c(NCc3c(C)cc(C)[nH]c3=O)nccc12)C1CCOCC1` [Compound Z-115], the half-inhibitory concentration (IC50) came to 706 nM in assay [1] (Homo sapiens, Pfeiffer, 144 h) and 47 nM in assay [2] (setting [3]).

For the compound `CCN(c1cc(-c2cnc(CN3CCN(C)CC3)c(F)c2)cc2c(NCc3c(C)cc(C)[nH]c3=O)nccc12)C1CCOCC1` [Compound Z-116], the IC50 was 525 nM in assay [1] (Homo sapiens, Pfeiffer, 144 h) and 41 nM in assay [2] (setting [3]).

With `CCN(c1cc(-c2ccc(CN3CCN(C)CC3)nc2)cc2c(NCc3c(C)cc(C)[nH]c3=O)nccc12)C1CCOCC1` [Compound Z-118], the concentration for half-maximal inhibition (IC50) came to 973 nM in assay [1] (Homo sapiens, Pfeiffer, 144 h) and 85 nM in assay [2] (setting [3]).

`CCN(c1cc(C(C)C)cc2c(NCc3c(C)cc(C)[nH]c3=O)nccc12)C1CCNCC1` [Compound Z-235, 3-((5-(ethyl (piperidin-4-yl)amino)-7-isopropylisoquinolin-1-ylamino)methyl)-4,6-dimethyl-2(1H)-one]: in assay [2] (setting [3]), the IC50 is 129 nM.

Broadly, the IC50 is the midpoint of a concentration-inhibition curve.
